In patent US7745619B2, “Vinca derivatives” (priority 2003, dated 2010) one finds GI50 data, which are given here for three molecules.

In general, GI50 refers to the concentration at which growth is held to half of that of the control.

Bounds are passed on as bounds.

One experiment concerns OVCAR-4. In words: NCI 60-cell line growth inhibition assay: OVCAR-4. The settings on record: Homo sapiens. The class given is cell-based.
The next experiment concerns NCI-H23. The experiment is classed as cell-based. To be noted: Homo sapiens.
A further experiment has as its system SK-MEL-2. Nature of the experiment: NCI 60-cell line growth inhibition assay: SK-MEL-2. The experiment is classed as cell-based. To be noted: Homo sapiens.
The next experiment concerns HCT-15. Nature of the experiment: NCI 60-cell line growth inhibition assay: HCT-15. The experiment is classed as cell-based. The settings on record: Homo sapiens.
In another experiment the test system is BT-549. In words: NCI 60-cell line growth inhibition assay: BT-549. The experiment is classed as cell-based. To be noted: Homo sapiens.
The subject of the next experiment is T-47D. Nature of the experiment: NCI 60-cell line growth inhibition assay: T-47D. The class given is cell-based. To be noted: Homo sapiens, T47D, Breast. The source says: (§1) The following data in Table 4 summarize the growth inhibition properties of several compounds of the present invention against 60-human transformed cell lines.
A further experiment concerns OVCAR-5. In words: NCI 60-cell line growth inhibition assay: OVCAR-5. The experiment is classed as cell-based. To be noted: Homo sapiens.
For a further experiment, the system named is RXF 393. Nature of the experiment: NCI 60-cell line growth inhibition assay: RXF 393. The experiment is classed as cell-based. The settings on record: Homo sapiens.
The subject of a further experiment is UO-31. In words: NCI 60-cell line growth inhibition assay: UO-31. The experiment is classed as cell-based. To be noted: Homo sapiens.
For the next experiment, the system named is SK-MEL-28. Nature of the experiment: NCI 60-cell line growth inhibition assay: SK-MEL-28. The experiment is classed as cell-based. The settings on record: Homo sapiens, Melanoma.
Excerpt: as §1

The subject of the next experiment is HeLa S-3 cells. Nature of the experiment: HeLa GI50 determination (SRB growth inhibition). The experiment is classed as cell-based, human. To be noted: Homo sapiens, HeLa S3, 48 h, read-out: HeLa Cells GI50 (nM). Put shortly:
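Cells plated at 2×10^4/well; day-0 plate TCA-fixed, test compounds added at 10-fold dilutions for 2 days. SRB staining, absorbance at 490 nm; GI = 100×(T−T0)/(C−T0), GI50 from growth inhibition vs. concentration plots.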

In a further experiment the test system is SNB-75. Nature of the experiment: NCI 60-cell line growth inhibition assay: SNB-75. The experiment is classed as cell-based. The settings on record: Homo sapiens.
In another experiment the test system is MALME-3M. Nature of the experiment: NCI 60-cell line growth inhibition assay: MALME-3M. The class given is cell-based. The settings on record: Homo sapiens, Malme-3M.
For the next experiment, the system named is K-562. Nature of the experiment: NCI 60-cell line growth inhibition assay: K-562. To be noted: Homo sapiens, K562. The experiment is classed as cell-based.
A further experiment deals with SR. In words: NCI 60-cell line growth inhibition assay: SR. The class given is cell-based. To be noted: Homo sapiens, Leukemia.
Excerpt: as §1

For a further experiment, the system named is NCI-H226. The class given is cell-based. The settings on record: Homo sapiens, Non-Small Cell Lung.
Excerpt: as §1

The next experiment has as its system HL-60(TB). In words: cells. The class given is cell-based. The settings on record: Homo sapiens, Leukemia.

For `CC[C@]1(O)C[C@H]2CN(CCc3c([nH]c4ccc(C#Cc5ccccc5)cc34)[C@@](C(=O)OC)(c3cc4c(cc3OC)N(C)[C@H]3[C@@](O)(C(=O)OC)[C@H](OC(C)=O)[C@]5(CC)C=CCN6CC[C@]43[C@@H]65)C2)C1` [Example 19, 12′-(2-phenylethynyl) vinblastine], the GI50 with OVCAR-4 worked out at 1550 nM; with NCI-H23 it was 541 nM; in the experiment with SK-MEL-2 it was 2290 nM; in the experiment on HCT-15 it was 8350 nM; in the experiment with BT-549 it was 1890 nM; in the experiment with T-47D it was 4750 nM. Besides, the concentration for 50% growth inhibition (GI50) was 1780 nM with OVCAR-5; 619 nM in the experiment on RXF 393; 2200 nM with UO-31; 1270 nM with SK-MEL-28; greater than 1000 nM in the experiment with HeLa S-3 cells; 530 nM with SNB-75. In the experiment on MALME-3M, this molecule displayed a GI50 of 254 nM.

Regarding `CCCC(=O)/C=C/c1ccc2[nH]c3c(c2c1)CCN1C[C@H](C[C@@](O)(CC)C1)C[C@]3(C(=O)OC)c1cc2c(cc1OC)N(C)[C@H]1[C@@](O)(C(=O)OC)[C@H](OC(C)=O)[C@]3(CC)C=CCN4CC[C@]21[C@@H]43` [Example 29, 12′-(3-oxohex-1-enyl)vinblastine], the GI50 with OVCAR-4 is 21.1 nM; with K-562, less than 10 nM; with SR it was 396 nM; in the experiment on SK-MEL-2, 9770 nM; in the experiment on HCT-15, 274 nM; in the experiment with NCI-H226, less than 10 nM. Moreover, the GI50 is 244 nM with HL-60(TB), 268 nM in the experiment on RXF 393 and 515 nM in the experiment with HeLa S-3 cells.

As for `CCC1=C[C@H]2CN(CCc3c([nH]c4ccc(Br)cc34)[C@@](C(=O)OC)(c3cc4c(cc3OC)N(C)[C@H]3[C@@](O)(C(=O)OC)[C@H](OC(C)=O)[C@]5(CC)C=CCN6CC[C@]43[C@@H]65)C2)C1` [Example 97, 12′-bromoanhydro vinblastine], the concentration for 50% growth inhibition (GI50) was less than 10 nM in the experiment on K-562; 325 nM in the experiment on NCI-H23; less than 10 nM with HCT-15; 19400 nM in the experiment on T-47D; less than 10 nM in the experiment on NCI-H226; less than 10 nM with HL-60(TB). In addition, the GI50 in the experiment with OVCAR-5 amounted to 12.4 nM; in the experiment on SK-MEL-28, 3310 nM; in the experiment with HeLa S-3 cells, 30 nM; in the experiment on SNB-75 it was 12200 nM; in the experiment with MALME-3M, 1420 nM.
